Test results: the METLIN SMRT retention time set (Domingo-Almenara et al. 2019)

Experiment: gradient 5% acetonitrile 3 min, to 50% in 2 min, to 85% in 15 min, held 3 min, 100 µL/min
Settings: column: Zorbax Extend-C18 2.1 x 50 mm; eluents: water / acetonitrile, 0.1% formic acid
Method in brief: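 Mixtures of ~100 pure standards were chromatographed on a Zorbax Extend-C18 column (2.1 × 50 mm, 1.8 μm) at 100 μL/min using water and acetonitrile, each with 0.1% formic acid. Detection used a quadrupole time-of-flight mass spectrometer in positive and negative ionization mode, and data collection spanned 3 months. Retention time was obtained from adduct peaks picked computationally and each checked manually.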

| SMILES | RP-LC retention time |
| --- | --- |
| CCc1ccc(C(O)CN2CCN(c3ccccn3)CC2)cc1 (stereo unspecified) | 572 s |
| CCN1C(=O)c2cc(C(=O)Nc3ccccc3C)nn2CC1(C)C(=O)NC1CCCC1 (stereo unspecified) | 807 s |
| CCOc1ccc(N(C)C(=O)Cn2cccc2-c2nnc(C3CC3)o2)cc1 | 888 s |
| Cc1cc(C)c(NC(=O)Cn2cc(-c3nc(C)no3)ccc2=O)c(C)c1 | 712 s |
| CN(C)S(=O)(=O)c1cccc(-c2nnc(-c3ccccc3Cl)o2)c1 | 941 s |
| Cc1cc(=O)n(CC(=O)Nc2ccc3c(c2)OCO3)c(N2CCCC2)n1 | 629 s |
| CCC1Oc2ccc(S(=O)(=O)N3CCC(C(=O)Nc4cccc(OC)c4)CC3)cc2NC1=O (stereo unspecified) | 854 s |
| O=C(NC1CCCCCC1)C1CCCN(c2nn3c(=O)c4c(nc3s2)CCCC4)C1 (stereo unspecified) | 838 s |
| O=[N+]([O-])c1cnc(Sc2ccncn2)s1 | 843 s |
| Clc1ccc(-c2ccc(CNCc3ccc4c(c3)OCO4)o2)cc1 | 762 s |
| COc1ccc(Cl)cc1S(=O)(=O)N(C)C1CCc2nn(CC3CC3)c(=O)n2CC1 (stereo unspecified) | 958 s |
| O=C(Nc1ccc(F)cc1)N1CCC(N2CCN(Cc3ccccc3)C2=O)CC1 | 794 s |
| O=C(CN1CCCCCC1)NCC12CCCC=C1NC(=O)CC2 (stereo unspecified) | 567 s |
| CCCNC(=O)CN1CCN(Cc2ccc(F)cc2)C1=O | 688 s |
| Fc1ccc(CN2CCCCC2c2nc(-c3cnccn3)no2)c(F)c1 (stereo unspecified) | 738 s |
| Cc1ccc(-c2noc(C3CCCN3C(=O)C3CC(=O)N(c4ccc(C)cc4)C3)n2)cc1 (stereo unspecified) | 989 s |
| CCc1cc(C(c2cccc(F)c2)N2CCN(C)CC2)c(NC(=O)c2ccccc2)s1 (stereo unspecified) | 622 s |
| CCn1cc(CCNC(=O)Nc2cccc(Cl)c2C)c2cccnc21 | 761 s |
| CCc1nnc(NC(=O)CSc2nc3ccccc3[nH]2)s1 | 656 s |
| CCNC(=O)N1CCCC(c2cccc(C(=O)NCCN3CCOCC3)c2)C1 (stereo unspecified) | 577 s |
| CCCNC(=O)C1CCN(c2ccc(SCC(=O)Nc3cccc(F)c3)nn2)CC1 | 645 s |
| N#Cc1cnc2ccccc2c1N1CCC(C(=O)N2CCSCC2)CC1 | 658 s |

| SMILES | RP-LC retention time |
| --- | --- |
| CC(C)(C)C1CCc2[nH]nc(C(=O)N3CCc4nn(CC#N)c(=O)n4CC3)c2C1 (stereo unspecified) | 760 s |
| COc1ccc(CCNC(=O)CSc2nnc(NC(=O)CC(C)C)s2)cc1OC | 700 s |
| CN1C(=O)CCc2cc(NC(=O)c3ccoc3)ccc21 | 653 s |
| O=C(Nc1ccc(F)cc1)Nc1cccc(-c2ccc(N3CCOCC3)nn2)c1 | 697 s |
| CN1CCC(N2CCN(C(=O)CCC3CCCN(c4cc(NC5CC5)ncn4)C3)CC2)CC1 (stereo unspecified) | 534 s |
| Cc1ccc(Cl)cc1NC(=O)N(C)CCO | 737 s |
| O=C(c1cc(F)ccc1Cl)N1CCN(c2ncccc2-c2nnc(C3CC3)o2)CC1 | 834 s |
| CC(C)n1c(=O)oc2cc(-c3noc(/C=C/c4ccccc4)n3)ccc21 | 1200 s |
| CCOC(=O)c1[nH]c(C)c(CN(Cc2ccco2)C(=O)Nc2cccc(F)c2)c1C | 990 s |
| O=C(Nc1ccc(F)c(F)c1)C1CCN(c2ccc(=O)n(-c3ccc(F)cc3)n2)CC1 | 822 s |
| COCCN1C(=O)c2cc(-c3ccc(OC)cc3)nn2CC1(C)C(=O)NCc1ccccc1OC (stereo unspecified) | 853 s |
| COc1ccc2c(c1)C1(CCN(C(=O)NCc3ccc(F)cc3)C1)C(=O)N2 (stereo unspecified) | 697 s |
| CC1CCN(S(=O)(=O)c2ccc3nc(N4CCN(c5ccc(F)cc5)CC4)ccc3c2)CC1 | 1190 s |
| COc1cc(C(=O)N2CCCC2c2nc(-c3ccccc3)no2)cc(OC)c1OC (stereo unspecified) | 910 s |
| O=C(Nc1cc(C(F)(F)F)ccc1Cl)c1cccc(Oc2ncccn2)c1 | 900 s |
| CCc1nc(-c2ccc(S(=O)(=O)N3CCC(C(=O)NCc4ccc5c(c4)OCO5)CC3)cc2)no1 | 929 s |
| CCOc1ccc(-c2nc(CN3CCN(C(=O)NC4CCCC4)CC3)c(C)o2)cc1 | 703 s |
| Cc1cc(NC(=O)CSc2nnc(NC(=O)c3ccc4c(c3)OCO4)s2)no1 | 727 s |
| Cc1cccc(OCC(=O)Nc2cccn3nc(C)nc23)c1 | 834 s |
| Cc1cc2c(cc1S(=O)(=O)N1CCC(C(=O)NCCC3=CCCCC3)CC1)OCC(=O)N2 | 820 s |
| CC1=NS(=O)(=O)N(C)C=C1C(=O)OCc1nc(-c2ccc(OC(F)(F)F)cc2)no1 | 1100 s |
| COc1ccc(-c2nc3cnccn3c2Nc2ccc(C(=O)NCCN3CCOCC3)cc2)cc1 | 584 s |

| SMILES | RP-LC retention time |
| --- | --- |
| Cc1ccc(N2CCC(NC(=O)c3cccc(C#N)c3)C2=O)cc1C (stereo unspecified) | 847 s |
| CN1C(=O)[C@H]2CN(Cc3ccc(F)c(Cl)c3)C[C@H]2C1=O | 623 s |
| O=C(c1cc(Cl)ccc1Cl)N1CCN(c2cc(-c3ccccc3)[nH]n2)CC1 | 882 s |
| O=C(NCc1ccccc1Br)C1CCCN(c2cnc3nccnc3c2)C1 (stereo unspecified) | 728 s |
| Nc1cc(C2CCN(S(=O)(=O)c3cccc(F)c3)CC2)no1 | 755 s |
| CCn1c(=O)c(C(=O)N2CCN(c3ccccn3)CC2)nc2cc(C)c(C)cc21 | 625 s |
| CCOc1ccc(S(=O)(=O)[C@H]2CS(=O)(=O)C[C@@H]2N2CCC(C(=O)OC)CC2)cc1 | 858 s |
| Cc1ccc(C)c(Cn2nnc(C(=O)O)c2-c2ccccn2)c1 | 752 s |
| CN(C)S(=O)(=O)c1ccc(N)c([N+](=O)[O-])c1 | 773 s |
| COc1cc2c(cc1OC)C(C(=O)N1CCN(C)CC1)C(c1ccc(SC)cc1)N(C)C2=O (stereo unspecified) | 612 s |
| CCN(CCN(C)C)c1nc(-c2ccc(OC)cc2)nc2ccccc12 | 562 s |
| COc1ccc(-c2cc3nn(CC(=O)Nc4ccc(F)c(Cl)c4)c(=O)n3c(C)n2)cc1 | 992 s |
| Cc1ccc(-c2n[nH]c3c2CN(S(=O)(=O)c2cn(C)cn2)CC3)cc1 | 687 s |
| Cc1ccc(C)c(NC(=O)CCc2nc(N3CCOCC3)c3c(C)noc3n2)c1 | 763 s |
| COC(=O)C(C)Sc1ncnc2c1oc1ccccc12 (stereo unspecified) | 906 s |
| COc1ccc(NC(=O)Cn2c(C(C)C)nc3c(c2=O)CCN(Cc2ccccc2)C3)c(OC)c1 | 703 s |
| CCOc1ccc(NC(=O)CNC(=O)C2CCCCC2)cc1 | 733 s |
| O=C(CCCn1ncn2c(cc3occc32)c1=O)N1CCN(c2ccccn2)CC1 | 577 s |
| Cc1c(Cl)cccc1NC(=O)C(=O)NC1CCCC1 | 964 s |
| O=C(NC1CCN(c2cc(-c3cccs3)[nH]n2)C1)c1cc(F)ccc1Cl (stereo unspecified) | 797 s |
| CCOC(=O)C1=C(CN2CCN(Cc3ccccc3)CC2)NC(=O)NC1c1cccc(OC)c1OC (stereo unspecified) | 660 s |
| CCCCCOC(=O)c1ccc(Nc2nc(C(=O)OCC)nc3ccccc23)cc1 | 1160 s |
